{"source": "patent US20080286357A1", "about": "“MULTI-FUNCTIONAL PARTICULATE DELIVERY SYSTEM FOR PHARMACOLOGICALLY ACTIVE INGREDIENTS” (Balchem Corporation, priority 2007, published 2008)", "test": "Flow and bulk density of powder blend", "format": "physicochemical", "method": "The procedure is described in USP<616<Bulk Density and Tapped Density.\nCabOSil with ubidecarenone is co-sieved through a 30-mesh. The ProSolv HD90 and multi-functional particulate system are added. The powder mix is blended at maximum speed for ten minutes. The powder mix is then sieved through a 40-mesh. Polyplasdone Crospovidone is added, and the mixture is blended at maximum speed for two minutes Finally, Mg-stearate is added, and the mixture is blended at maximum speed for two minutes.", "data": [{"smiles": "COC1=C(OC)C(=O)C(C/C=C(\\C)CC/C=C(\\C)CC/C=C(\\C)CC/C=C(\\C)CC/C=C(\\C)CC/C=C(\\C)CC/C=C(\\C)CC/C=C(\\C)CC/C=C(\\C)CCC=C(C)C)=C(C)C1=O", "note": "[Ubidecarenone]", "values": [{"measurement": "flow (in words)", "result": "does not flow"}]}]}
